Experiments:
carbonyl reductase [1] = molecular target: T1, carbonyl reductase (Homo sapiens, UniProt P16152); assay: Inhibition of carbonyl reductase by arylcyanooximes (1/rate vs. 1/substrate, menadione and NADPH as varied substrates); format: biochemical; details: for Ki: uncompetitive against both coenzyme and carbonyl substrates, range over the six compounds, read-out: Kii (intercept inhibition constant)
T1 sequence (P16152 1-277): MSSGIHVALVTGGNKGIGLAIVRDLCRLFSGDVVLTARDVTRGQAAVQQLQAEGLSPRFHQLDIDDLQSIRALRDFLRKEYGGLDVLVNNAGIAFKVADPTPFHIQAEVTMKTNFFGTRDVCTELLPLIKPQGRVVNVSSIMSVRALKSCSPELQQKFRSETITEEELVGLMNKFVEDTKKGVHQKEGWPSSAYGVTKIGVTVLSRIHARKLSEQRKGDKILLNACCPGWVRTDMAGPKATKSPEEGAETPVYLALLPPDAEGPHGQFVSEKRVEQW
Description: FIG. 6 describes inhibition patterns seen with inhibitors C1, C2, C3, C4, C5, and C6 wherein KII stands for the intercept inhibition constant.
Six arylcyanooximes (C1, C2, C3, C4, C5, and C6) were tested as possible inhibitors for carbonyl reductase. (See the syntheses described earlier in this disclosure). […] See FIGS. 5 A and B, portraying the 1/rate vs. 1/substrate concentration taken with C5, with menadione and NADPH as the varied substrates, respectively. […] Therefore, while compositions comprising C5 are preferred, compositions comprising C1, C2, C3, C4, and/or C6 are also included in embodiments of the invention and are also expected by the inventors to be beneficial in the methods of the invention.

[2] = tested on: A549 adenocarcinoma cells; details: coadministered with daunorubicin; cited from earlier work
carbonyl reductase [3] = molecular target: T1, carbonyl reductase; details: cited from earlier work

Row | inhibition pattern against the carbonyl substrate (carbonyl reductase [1]) | inhibition pattern against both coenzyme and carbonyl substrates (carbonyl reductase [1]) | Ki (carbonyl reductase [1]) [µM] | melting point [°C] | potency as inhibitor of carbonyl reductase (in words) (carbonyl reductase [1]) | inhibition pattern against NADPH (carbonyl reductase [1]; NADPH as varied substrate (FIG. 5B)) | inhibition pattern against menadione (carbonyl reductase [1]; menadione as varied substrate (FIG. 5A)) | SMILES | effect on cytotoxicity of daunorubicin [2] | potency as inhibitor of human carbonyl reductase (in words) (carbonyl reductase [3])
1 | uncompetitive inhibitors | uncompetitive inhibitors | 10.8 to 72 | 94 to 96 | – | – | – | N#CC(=NO)c1c(Cl)cccc1Cl [C6, oximino(2,6-dichlorophenyl)acetonitrile] | – | –
2 | uncompetitive inhibitors | uncompetitive inhibitors | 10.8 to 72 | 64 to 67 | – | – | – | N#CC(=NO)c1cc(F)ccc1F [C3, oximino(2,5-difluorophenyl)acetonitrile] | – | –
3 | – | – | – | – | – | – | – | CNc1ncnc2c1c(-c1cccc(O)c1)cn2C(C)C [3-(7-isopropyl-4-(methylamino)-7H-pyrrolo[2,3-d]pyrimidin-5-yl)phenol] | enhance the cytotoxicity of daunorubicin | potent inhibitor
4 | uncompetitive inhibitors | uncompetitive inhibitors | 10.8 to 72 | 151 | potent inhibitor | uncompetitive inhibitor | uncompetitive inhibitor | N#CC(=NO)c1ccc(Cl)cc1Cl [C5, oximino(2,4-dichlorophenyl)acetonitrile] | – | –
5 | uncompetitive inhibitors | uncompetitive inhibitors | 10.8 to 72 | 99 to 100 | – | – | – | N#CC(=NO)c1c(F)cccc1F [C2, oximino(2,6-difluorophenyl)acetonitrile] | – | –
6 | uncompetitive inhibitors | uncompetitive inhibitors | 10.8 to 72 | 64 to 65 | – | – | – | N#CC(=NO)c1ccc(F)cc1F [C1, oximino(2,4-difluorophenyl)acetonitrile] | – | –

Row | SMILES | inhibition pattern against the carbonyl substrate (carbonyl reductase [1]) | inhibition pattern against both coenzyme and carbonyl substrates (carbonyl reductase [1]) | Ki (carbonyl reductase [1]) [µM] | melting point [°C] | potency as inhibitor of carbonyl reductase (in words) (carbonyl reductase [1]) | inhibition pattern against NADPH (carbonyl reductase [1]; NADPH as varied substrate (FIG. 5B)) | inhibition pattern against menadione (carbonyl reductase [1]; menadione as varied substrate (FIG. 5A)) | effect on cytotoxicity of daunorubicin [2] | potency as inhibitor of human carbonyl reductase (in words) (carbonyl reductase [3])
7 | N#CC(=NO)c1c(F)cccc1Cl [C4, oximino(2-chloro-6-fluorophenyl)acetonitrile] | uncompetitive inhibitors | uncompetitive inhibitors | 10.8 to 72 | – | – | – | – | – | –

From patent US7727967B2, “Cyanooxime inhibitors of carbonyl reductase and methods of using said inhibitors in treatments involving anthracyclines” (Boise State University, priority 2006, dated 2010)
